Where no end group is shown, it is not given here.
Key:
E. coli 25922 = type: cell-based, Escherichia coli; conditions: 25922, 24 h
Method: (§1) The antimicrobial activities of the peptides were measured using a method adapted from the National Committee for Clinical Laboratory Standards (NCCLS) with some modifications ([Chou et al., 2016]). The specific procedure for these assays has been previously described. In brief, the bacterial cells were grown to a mid-logarithmic phase and diluted in MHB to an ultimate concentration of 0.5–1 × 10^6 CFU mL^–1. Subsequently, the peptides were consecutively diluted in a 0.2% BSA solution and then added to a bacterial solution in a 96-well plate at identical volumes. After incubation for 24 h at 37°C, the MICs were determined to be the lowest peptide concentration that inhibited 95% of the bacterial growth by monitoring the absorbance at 492 nm using a microplate reader. Subsequently, 50 μL of each incubation mixture was further transferred to agar plates and incubated overnight. The minimum bactericidal concentrations (MBCs) were determined as the lowest peptide concentration that killed greater than 99.9% of the bacterial cells. Every assay was reproduced more than 3 times.

E. coli O78 = type: cell-based, Escherichia coli; conditions: O78, 24 h
Method: as §1

E. coli UB1005 = type: cell-based, Escherichia coli; conditions: UB1005, 24 h
Method: as §1

S. typhimurium 14028 = type: cell-based, Salmonella typhimurium; conditions: 14028, 24 h
Method: as §1

S. typhimurium 7731 = type: cell-based, Salmonella typhimurium; conditions: 7731, 24 h
Method: as §1

S. pullorum 7913 = type: cell-based, Salmonella pullorum; conditions: 7913, 24 h
Method: as §1

P. aeruginosa 27853 = type: cell-based, Pseudomonas aeruginosa; conditions: 27853, 24 h
Method: as §1

Gram-negative bacteria = conditions: for GM, Gram-negative bacteria: geometric mean of MICs (Table 3); for TI, Gram-negative bacteria: therapeutic index TI = MHC/GM MIC
Method: (§2) The antimicrobial activity of AMPs is the most decisive index for evaluating the clinical application of antimicrobial drugs.
as §1, with “The minimum bactericidal concentrations (MBCs) were determined as the lowest peptide concentration that killed greater than 99.9% of the bacterial cells.” left out

Gram-positive bacteria = conditions: for GM, Gram-positive bacteria: geometric mean of MICs (Table 3); for TI, Gram-positive bacteria: therapeutic index TI = MHC/GM MIC
Method: as §2
as §1, with “The minimum bactericidal concentrations (MBCs) were determined as the lowest peptide concentration that killed greater than 99.9% of the bacterial cells.” left out

S. aureus 25923 = type: cell-based, Staphylococcus aureus; conditions: 25923, 24 h
Method: as §1

S. aureus 29213 [1] = type: cell-based, Staphylococcus aureus; conditions: 29213, 24 h
Method: as §1

S. epidermidis 12228 = type: cell-based, Staphylococcus epidermidis; conditions: 12228, 24 h
Method: as §1

MRSA 43300 = type: cell-based, methicillin-resistant S. aureus; conditions: 43300, 24 h
Method: as §1

B. subtilis 63501 = type: cell-based, Bacillus subtilis; conditions: 63501, 24 h
Method: as §1

E. faecalis 29212 = type: cell-based, Enterococcus faecalis; conditions: 29212, 24 h
Method: as §1

[2] = system: Listeria monocytogenes CGMCC 1.1075; type: cell-based; conditions: CGMCC 1.1075, 24 h
Method: as §1

[3] = system: all of the tested bacterial strains; test: Geometric mean of MICs, all tested bacterial strains; type: cell-based; conditions: for GM, All: geometric mean of MICs across all tested strains; for TI, All: therapeutic index TI = MHC/GM MIC
Text: The antimicrobial activity of AMPs is the most decisive index for evaluating the clinical application of antimicrobial drugs. Many antimicrobial agents inhibit bacterial growth rather than kill the bacteria quickly, and long-term infections are pathogens that are not completely killed, which results in bacterial severe drug resistance. […] The geometric mean (GM) values of the MICs/MBCs of the two series across all of the tested bacterial strains are represented in Table 3, which depicts the average bacteriostatic/bactericidal level of a peptide.
as §1

E. coli ATCC 25922 = test: Salt sensitivity assay (MIC); type: cell-based, Escherichia coli; conditions: for MIC, FeCl3: 4 μM FeCl3; for MIC, NH4Cl: 6 μM NH4Cl; for MIC, ZnCl2: 8 μM ZnCl2; for MIC, MgCl2: 1 mM MgCl2; for MIC, CaCl2: 2 mM CaCl2; for MIC, KCl: 4.5 mM KCl; for MIC, NaCl: 150 mM NaCl; for MIC, Control: no added salt, three independent assays
Method: as §1
(§3) The salt sensitivities of the peptides were determined. E. coli ATCC 25922 and S. aureus ATCC 29213 were incubated in the presence of various ultimate concentrations of physiological salts (150 mM NaCl, 4.5 mM KCl, 6 μM NH4Cl, 8 μM ZnCl2, 1 mM MgCl2, 2mM CaCl2, and 4 μM FeCl3) according to our previous protocol ([Yang et al., 2019]). These tests were performed under the MICs, and three independent assays were performed.

S. aureus 29213 [4] = test: Salt sensitivity assay (MIC); type: cell-based, Staphylococcus aureus; conditions: for MIC, FeCl3: 4 μM FeCl3; for MIC, NH4Cl: 6 μM NH4Cl; for MIC, ZnCl2: 8 μM ZnCl2; for MIC, MgCl2: 1 mM MgCl2; for MIC, CaCl2: 2 mM CaCl2; for MIC, KCl: 4.5 mM KCl; for MIC, NaCl: 150 mM NaCl; for MIC, Control: no added salt, three independent assays
Method: as §1, §3

RWWWWRRWR-NH2 [W10]
MBC (E. coli 25922): 16 µM | MIC (E. coli 25922): 8 µM | MBC (E. coli O78): 8 µM | MIC (E. coli O78): 4 µM | MBC (E. coli UB1005): 16 µM | MIC (E. coli UB1005): 8 µM | MBC (S. typhimurium 14028): 16 µM | MIC (S. typhimurium 14028): 8 µM | MBC (S. typhimurium 7731): 8 µM | MIC (S. typhimurium 7731): 4 µM | MBC (S. pullorum 7913): 32 µM | MIC (S. pullorum 7913): 16 µM | MBC (P. aeruginosa 27853): 8 µM | MIC (P. aeruginosa 27853): 4 µM | GM, Gram-negative bacteria (Gram-negative bacteria): 5.44 µM | TI, Gram-negative bacteria (Gram-negative bacteria): 47.06 | GM, Gram-positive bacteria (Gram-positive bacteria): 2.21 µM | TI, Gram-positive bacteria (Gram-positive bacteria): 115.84 | MBC (S. aureus 25923): 4 µM | MIC (S. aureus 25923): 2 µM | MBC (S. aureus 29213 [1]): 4 µM | MIC (S. aureus 29213 [1]): 2 µM | MBC (S. epidermidis 12228): 4 µM | MIC (S. epidermidis 12228): 2 µM | MBC (MRSA 43300): 4 µM | MIC (MRSA 43300): 2 µM | MBC (B. subtilis 63501): 4 µM | MIC (B. subtilis 63501): 2 µM | MBC (E. faecalis 29212): 8 µM | MIC (E. faecalis 29212): 4 µM | MBC [2]: 4 µM | MIC [2]: 2 µM | GM, All [3]: 3.67 µM | TI, All [3]: 69.75 | MIC, FeCl3 (E. coli ATCC 25922): 4 µM | MIC, NH4Cl (E. coli ATCC 25922): 8 µM | MIC, ZnCl2 (E. coli ATCC 25922): 4 µM | MIC, MgCl2 (E. coli ATCC 25922): 16 µM | MIC, CaCl2 (E. coli ATCC 25922): 16 µM | MIC, KCl (E. coli ATCC 25922): 16 µM | MIC, NaCl (E. coli ATCC 25922): 32 µM | MIC, Control (E. coli ATCC 25922): 8 µM | MIC, FeCl3 (S. aureus 29213 [4]): 1 µM | MIC, NH4Cl (S. aureus 29213 [4]): 1 µM | MIC, ZnCl2 (S. aureus 29213 [4]): 1 µM | MIC, MgCl2 (S. aureus 29213 [4]): 2 µM | MIC, CaCl2 (S. aureus 29213 [4]): 2 µM | MIC, KCl (S. aureus 29213 [4]): 2 µM | MIC, NaCl (S. aureus 29213 [4]): 2 µM | MIC, Control (S. aureus 29213 [4]): 2 µM

WRRWRWWRW-NH2 [W12]
MBC (E. coli 25922): 8 µM | MIC (E. coli 25922): 4 µM | MBC (E. coli O78): 8 µM | MIC (E. coli O78): 4 µM | MBC (E. coli UB1005): 8 µM | MIC (E. coli UB1005): 4 µM | MBC (S. typhimurium 14028): 8 µM | MIC (S. typhimurium 14028): 4 µM | MBC (S. typhimurium 7731): 16 µM | MIC (S. typhimurium 7731): 8 µM | MBC (S. pullorum 7913): 8 µM | MIC (S. pullorum 7913): 4 µM | MBC (P. aeruginosa 27853): 8 µM | MIC (P. aeruginosa 27853): 4 µM | GM, Gram-negative bacteria (Gram-negative bacteria): 4.32 µM | TI, Gram-negative bacteria (Gram-negative bacteria): 29.63 | GM, Gram-positive bacteria (Gram-positive bacteria): 2.00 µM | TI, Gram-positive bacteria (Gram-positive bacteria): 64.00 | MBC (S. aureus 25923): 4 µM | MIC (S. aureus 25923): 2 µM | MBC (S. aureus 29213 [1]): 4 µM | MIC (S. aureus 29213 [1]): 2 µM | MBC (S. epidermidis 12228): 4 µM | MIC (S. epidermidis 12228): 2 µM | MBC (MRSA 43300): 4 µM | MIC (MRSA 43300): 2 µM | MBC (B. subtilis 63501): 2 µM | MIC (B. subtilis 63501): 1 µM | MBC (E. faecalis 29212): 8 µM | MIC (E. faecalis 29212): 4 µM | MBC [2]: 4 µM | MIC [2]: 2 µM | GM, All [3]: 3.08 µM | TI, All [3]: 41.56 | MIC, FeCl3 (E. coli ATCC 25922): 4 µM | MIC, NH4Cl (E. coli ATCC 25922): 4 µM | MIC, ZnCl2 (E. coli ATCC 25922): 2 µM | MIC, MgCl2 (E. coli ATCC 25922): 4 µM | MIC, CaCl2 (E. coli ATCC 25922): 16 µM | MIC, KCl (E. coli ATCC 25922): 4 µM | MIC, NaCl (E. coli ATCC 25922): 32 µM | MIC, Control (E. coli ATCC 25922): 4 µM | MIC, FeCl3 (S. aureus 29213 [4]): 2 µM | MIC, NH4Cl (S. aureus 29213 [4]): 2 µM | MIC, ZnCl2 (S. aureus 29213 [4]): 2 µM | MIC, MgCl2 (S. aureus 29213 [4]): 2 µM | MIC, CaCl2 (S. aureus 29213 [4]): 2 µM | MIC, KCl (S. aureus 29213 [4]): 2 µM | MIC, NaCl (S. aureus 29213 [4]): 4 µM | MIC, Control (S. aureus 29213 [4]): 2 µM
